# Reference: ChEMBL document CHEMBL4017548, “Molecular Hybridization of Potent and Selective γ-Hydroxybutyric Acid (GHB) Ligands: Design, Synthesis, Binding Studies, and Molecular Modeling of Novel 3-Hydroxycyclopent-1-enecarboxylic Acid (HOCPCA) and trans-γ-Hydroxycrotonic Acid (T-HCA) Analogs” (J Med Chem, 2017)
# Experiment: Displacement of [3H]NCS-382 from GHB binding site in Sprague-Dawley rat brain synaptosomal membranes after 1 hr by scintillation counting method
Structure (SMILES),Ki [µM],pKi
O=C(O)C1=C(c2ccc(Cl)cc2)C(O)CC1 (stereo not drawn),70,4.16
O=C(O)[C@]12CC[C@@H](O)[C@H]1C2 (relative stereo),> 100,
O=C(O)/C=C/C(O)c1ccc(OCc2ccccc2)cc1 (stereo not drawn),0.043,7.43
O=C(O)/C=C/C(O)c1ccc(CCc2ccccc2)cc1 (racemic),0.042,7.39
O=C(O)/C=C/C(O)c1ccc(OCc2ccc(Br)cc2)cc1 (stereo not drawn),0.023,7.64
O=C(O)C1=C(c2ccccc2)C(O)CC1 (stereo not drawn),48,4.32
O=C(O)/C=C/C1(O)CCCCC1,4.3,5.37
COc1ccc(C2=C(C(=O)O)CCC2O)cc1 (stereo not drawn),> 300,
O=C(O)C#CCO,4.3,5.5
O=C(O)C1=C(c2ccc(Cl)c(Cl)c2)C(O)CC1 (stereo not drawn),62,4.21
O=C(O)C1CCC(O)C1 (stereo not drawn),20,4.71
O=C(O)C#CC1(O)CCC1,1.6,5.78
O=C(O)/C=C/C1(O)CCCC1,3.1,5.51
O=C(O)/C=C/C(O)c1ccc(Cc2ccccc2)cc1 (racemic),0.042,7.38
C=CCC1=C(C(=O)O)CCC1O (stereo not drawn),> 300,
O=C(O)[C@@H]1CC[C@@](O)(c2ccccc2)C1,53,4.28
Cc1ccc(C2=C(C(=O)O)CCC2O)cc1 (stereo not drawn),157,3.81
O=C(O)C1=CC(c2ccccc2)CC1 (stereo not drawn),16,4.8
O=C(O)[C@@H]1CC[C@@](O)(c2ccc(-c3ccccc3)cc2)C1,0.51,6.29
O=C(O)/C=C/C1(O)CCC1,3.5,5.47
O=C(O)C1=CC(c2ccc(-c3ccccc3)cc2)CC1 (stereo not drawn),3.2,5.49

Structure (SMILES),Ki [µM],pKi
CC1=C(C(=O)O)CCC1O (stereo not drawn),80,4.1
"O=C(O)/C=C/C(O)c1ccc(Cc2ccccc2)cc1 (single isomer, unassigned; (+))",0.03,7.47
O=C(O)C1CC(O)C1 (stereo not drawn),70,4.16
O=C(O)C#CC1(O)CCCCC1,7.7,5.12
O=C(O)C1=CC(c2ccc(OCc3ccccc3)cc2)CC1 (stereo not drawn),1.6,5.77
O=C(O)/C=C/C(O)c1ccc(-c2ccccc2)cc1 (racemic),0.075,7.14
O=C(O)C1=CC(O)CC1 (stereo not drawn),0.13 to 0.16,6.89
O=C(O)C#CC(O)c1ccc(OCc2ccccc2)cc1 (racemic),1.6,5.8
O=C(O)C1=CCCC1,31,4.51
COc1cccc(CC2=C(C(=O)O)CCC2O)c1 (stereo not drawn),46,4.43
O=C(O)C1=C[C@@H](O)CC1,1.4,
O=C(O)C1=CC(c2ccccc2O)CC1 (stereo not drawn),4.6,5.34
O=C(O)CCCO [OXYBATE],3.6,5.44
O=C(O)/C=C/C(O)c1ccc(Cc2ccccc2)cc1 (stereo in doubt; (-)-9e),1.16,5.97
O=C(O)C1=C[C@H](O)CC1,0.11,
O=C(O)[C@H]1CCC[C@@H](O)C1 (relative stereo),35,4.45
O=C(O)C#CC1(O)CCCC1,2.7,5.57
O=C(O)C#CC(O)Cc1ccccc1 (racemic),3.5,5.45
O=C(O)[C@@H]1CCC[C@@H](O)C1 (relative stereo),28,4.55
O=C(O)C1=C(Cc2ccccc2)C(O)CC1 (stereo not drawn),38,4.43
CCC1=C(C(=O)O)CCC1O (stereo not drawn),> 300,
